Experimental data from patent US3937830A, “5-Pivaloyloxy-5-(1-phenylethyl) barbituric acid, analgetic composition and method based thereon” (The Kendall Company, priority 1974, dated 1976).
Like-named read-outs stand apart in the source and are kept apart here.

What was measured:
[1] = Acute oral toxicity in mice; parameters: species or system adult albino male mice (Charles River strain); conditions: mouse, in vivo, 95% limits in parentheses
Method: (§1) All tests were conducted on adult albino male mice (Charles River strain); the dosage consisted of the active agent suspended in 10% aqueous acacia and was administered orally and/or subcutaneously as indicated.
(§2) Acute oral toxicity was determined in the conventional manner. The results were expressed as LD50, the dose required to produce death in 50% of the animals treated, determined graphically, with the 95% limits shown in parentheses.

[2] = Hot-plate analgetic activity (Eddy and Leimbach, modified); format: in vivo, adult albino male mice (Charles River strain); conditions: for ED50: Mus musculus, mice
Method: as §1
Two established procedures were employed to determine analgetic activity. The method described by Eddy, N. B., and Leimbach, D., J. Pharmacol. Exptl. Therap. 107, 385 (1953) was followed, with the following modifications, in the first procedure. Mice are pretested by placing them individually on the cleaned surface of a copper water bath, the temperature of which is maintained at 54°-55°C. The reaction time of this noxious thermal stimulus is the time in seconds required for either licking of the paws or jumping, such that all four paws leave the surface of the plate. The drug is then administered orally or subcutaneously, generally at five dosage levels, (10 mice per dosage level) and the reaction times are redetermined at intervals of 1/2 hour, 1 hour, and 2 hours; the time of peak activity is the time at which the greatest number of animals is protected. From the pretreatment reaction times the mean and standard deviations are computed. The cut-off time is taken to be the mean reaction time plus 2 standard deviation units. Reaction times equal to or exceeding this cut-off time are considered to represent analgetic responses. The dosage required to produce an analgetic response in 50% of the animals (ED50 and 95% limits) is computed graphically.

[3] = Phenyl-p-quinone writhing (Siegmund); format: in vivo, adult albino male mice (Charles River strain); conditions: oral, mice, not dose-related
Method: as §1
In the second procedure, the method of Siegmund, E., et al. reported in Proc. Soc. Exptl. Biol. and Med. 95, 729, (1957) was generally followed. The method is based on the antagonism by both non-narcotic and narcotic analgetics of a syndrome induced in mice following intraperitoneal injection of phenyl-p-quinone. The syndrome is characterized by intermittent contractions of the abdomen, twisting and turning of the trunk, and extension of the hind legs, beginning 3 to 10 minutes after the injection and persisting for more than one hour. The test drug is administered orally at four to five dosage levels. At the time of peak activity, 0.25 ml. of a 0.02 per cent solution of phenyl-p-quinone in 5 per cent (aqueous) ethyl alcohol is injected intraperitoneally. Inhibition of the syndrome is considered an analgetic response.

[4] = Therapeutic index (LD50 divided by ED50); parameters: species or system adult albino male mice (Charles River strain); conditions: mouse, in vivo; oral LD50 / oral hot-plate ED50, mice
Method: By therapeutic index is meant the LD50 of a compound divided by its ED50, or the dose required to kill one-half of the test animals divided by the dose required to produce the desired therapeutic effect in one-half of the test animals. It will be apparent that the larger the therapeutic index, the greater the margin of safety and the more desirable the drug.
as §1, §2
Two established procedures were employed to determine analgetic activity. The method described by Eddy, N. B., and Leimbach, D., J. Pharmacol. Exptl. Therap. 107, 385 (1953) was followed, with the following modifications, in the first procedure. Mice are pretested by placing them individually on the cleaned surface of a copper water bath, the temperature of which is maintained at 54°-55°C. The reaction time of this noxious thermal stimulus is the time in seconds required for either licking of the paws or jumping, such that all four paws leave the surface of the plate. […]

CC(c1ccccc1)C1(OC(=O)C(C)(C)C)C(=O)NC(=O)NC1=O (centres unmarked) [5-pivaloyloxy-5-(1-phenylethyl) barbituric acid] gave an LD50 [1] of 690 mg/kg, an ED50 ([2]; sc, subcutaneous, not dose-related, read-out: Hot-Plate ED50 (subcutaneous)) of 40 to 80 mg/kg and an ED50 ([2]; oral, read-out: Hot-Plate ED50 (oral)) of under 3.1 mg/kg. For the same compound, the “Time of Peak Activity” value ([2]; time at which the greatest number of animals is protected) was 1/2, the “Phenyl-p-quinone Writhing, % active” value ([3]; 100 mg/kg) was 26% and the “Phenyl-p-quinone Writhing, % active” value ([3]; 200 mg/kg) was 30%. The “Phenyl-p-quinone Writhing, % active” value ([3]; 400 mg/kg) was 10% and the selectivity ratio [4] was over 230.
